Laboratory results: publication PMC8589628, “Characterization and Antimicrobial Studies of Iturin-Like and Bogorol-Like Lipopeptides From Brevibacillus spp. Strains GI9 and SKDU10” (Frontiers in Microbiology, 2021)
≈ marks a conversion by molar mass, not a printed value.

Experiments:
C. haemulonii MTCC 2766 = experiment: MIC, microtiter plate dilution assay; assay type: cell-based; parameters: key to MIC value: R = resistant; conditions: 5 × 10^5 CFU/ml, 37°C, OD 600 nm after 48 h
Experimental: (§1) The antimicrobial activity of HPLC purified compounds was determined against various test strains including S. aureus MTCC 1430, Vibrio cholera MTCC 3904, Bacillus subtilis MTCC 121, Listeria monocytogenes MTCC 839, C. albicans MTCC 183, C. albicans MTCC 1637, C. albicans MTCC 227, C. tropicalis MTCC 184, C. glabrata MTCC 3019, and C. inconspicua MTCC 1074. Antimicrobial activity was also tested against clinical Candida strains and phytopathogenic fungi viz. Fusarium moniliforme MTCC 158, Alternaria brassicicola MTCC 2102 and Colletotrichum acutatum MTCC 1037. Bacterial and Candida test strains were grown in NB and yeast malt broth (YMB), respectively. Fungal test strains were grown in potato dextrose broth (PDB). Minimum inhibitory concentrations (MICs) of purified compounds were evaluated against test organisms by using a microtiter plate dilution assay. Mid-log-phase test strains (5 × 10^5 CFU/ml) were incubated in a 96-well plate with different concentrations of the lipopeptides for 24–48 h at 37°C (final volume of 200 μl). OD was measured at 600 nm after 24 and 48 h for bacteria and yeast, respectively, using an ELISA microplate reader (Thermo Scientific, United States). MIC against phytopathogenic fungi was determined using the 96-well microtiter plate method ([Sharma et al., 2020]).

C. glabrata MTCC 3019 = experiment: MIC, microtiter plate dilution assay; assay type: cell-based; parameters: key to MIC value: R = resistant; conditions: 5 × 10^5 CFU/ml, 37°C, OD 600 nm after 48 h
Experimental: as §1

C. tropicalis MTCC 184 = experiment: MIC, microtiter plate dilution assay; assay type: cell-based; parameters: key to MIC value: R = resistant; conditions: 5 × 10^5 CFU/ml, 37°C, OD 600 nm after 48 h
Experimental: as §1

[1] = test system: A. brassicicola MTCC 2102; experiment: MIC against phytopathogenic fungi, 96-well microtiter plate method; assay type: cell-based, Alternaria brassicicola; parameters: key to MIC value: R = resistant
Experimental: as §1

C. inconspicua MTCC 1074 = experiment: MIC, microtiter plate dilution assay; assay type: cell-based; conditions: Pichia inconspicua, MTCC1074, YMB, 5 × 10^5 CFU/ml, 37°C, OD 600 nm after 48 h
Experimental: as §1

C. albicans 400054 = experiment: MIC, microtiter plate dilution assay, clinical strain; assay type: cell-based, Candida albicans; parameters: key to MIC value: R = resistant; conditions: YMB, 37°C, OD 600 nm after 48 h
Experimental: (§2) Brevibacillus sp. strains GI-9 and SKDU10 were known to produce class IId bacteriocins identified as laterosporulins a ([Singh et al., 2012]; [Baindara et al., 2016]). Both strains were grown on nutrient agar (NA, Himedia, India). All test strains used in this study were obtained from Microbial Type Culture Collection and Gene bank (MTCC), Chandigarh, India. Clinical Candida strains were obtained from the National Culture Collection of Pathogenic Fungi (NCCPF), PGIMER, Chandigarh, India, and all strains were grown on recommended media.
as §1

C. tropicalis 420024 = experiment: as above; assay type: cell-based; parameters: key to MIC value: R = resistant; conditions: YMB, 37°C, OD 600 nm after 48 h
Experimental: as §2, §1

C. auris 470126 = experiment: as above; assay type: cell-based; parameters: key to MIC value: R = resistant; conditions: YMB, 37°C, OD 600 nm after 48 h
Experimental: as §2, §1

C. haemulonii 470125 = experiment: as above; assay type: cell-based; parameters: key to MIC value: R = resistant; conditions: YMB, 37°C, OD 600 nm after 48 h
Experimental: as §2, §1

C. kefyr 410004 = experiment: as above; assay type: cell-based; parameters: key to MIC value: R = resistant; conditions: YMB, 37°C, OD 600 nm after 48 h
Experimental: as §2, §1

C. acutatum MTCC1037 = experiment: MIC against phytopathogenic fungi, 96-well microtiter plate method; assay type: cell-based, Colletotrichum acutatum; parameters: key: R = resistant; conditions: PDB
Experimental: as §1

C. albicans MTCC 1637 = experiment: MIC, microtiter plate dilution assay; assay type: cell-based, Candida albicans; parameters: key to MIC value: R = resistant; conditions: 5 × 10^5 CFU/ml, 37°C, OD 600 nm after 48 h
Experimental: as §1

C. albicans MTCC 227 = experiment: MIC, microtiter plate dilution assay; assay type: cell-based, Candida albicans; parameters: key to MIC value: R = resistant; conditions: 5 × 10^5 CFU/ml, 37°C, OD 600 nm after 48 h
Experimental: as §1

C. albicans MTCC 183 = experiment: MIC, microtiter plate dilution assay; assay type: cell-based, Candida albicans; conditions: Candida albicans, MTCC183, YMB, 5 × 10^5 CFU/ml, 37°C, OD 600 nm after 48 h
Experimental: as §1

F. moniliforme MTCC 158 = experiment: MIC against phytopathogenic fungi, 96-well microtiter plate method; assay type: cell-based, Fusarium moniliforme; conditions: Fusarium verticillioides, MTCC158, PDB
Experimental: as §1

C. rugosa 470141 = experiment: MIC, microtiter plate dilution assay, clinical strain; assay type: cell-based; conditions: Diutina rugosa, YMB, 37°C, OD 600 nm after 48 h
Experimental: as §2, §1

C. krusei 440009 = experiment: as above; assay type: cell-based; conditions: Pichia kudriavzevii, YMB, 37°C, OD 600 nm after 48 h
Experimental: as §2, §1

C. parapsilosis 450030 = experiment: as above; assay type: cell-based; conditions: Lodderomyces parapsilosis, YMB, 37°C, OD 600 nm after 48 h
Experimental: as §2, §1

[2] = test system: Vigna radiata (Moong) seeds; experiment: Seed germination-based phytotoxicity assay; conditions: Vigna radiata seeds soaked in 0.1% solution (positive control), up to 3 days
Experimental: For hemolysis assay rabbit erythrocytes were treated with different concentrations of purified active antimicrobial compounds ranging from 250 to 750 μg/ml and incubated at 37°C for 24 h in a 5% CO2 incubator. The release of hemoglobin was monitored by measuring the absorbance at 540 nm in a microplate reader. PBS and 0.1% Triton X-100 were used as controls for 0 and 100% hemolysis, respectively ([Singh et al., 2021]). For phytotoxicity assay, sterilized Vigna radiata (Moong) seeds were treated with different concentrations of purified antimicrobial compounds (250–750 μg/ml). Seeds soaked in water and 0.1% mercuric chloride were used as negative and positive control, respectively. Seeds germination was observed up to 3 days of incubation.

Structure (SMILES): C[C@@H]1[C@H](O)[C@@H](C)/C=C/C=C/C=C/C=C/C=C/C=C/C=C/[C@H](O[C@@H]2O[C@H](C)[C@@H](O)[C@H](N)[C@@H]2O)C[C@@H]2O[C@](O)(C[C@@H](O)C[C@@H](O)[C@H](O)CC[C@@H](O)C[C@@H](O)CC(=O)O[C@H]1C)C[C@H](O)[C@H]2C(=O)O [Amphotericin B]
- MIC (C. haemulonii MTCC 2766; Candidozyma haemuli, MTCC2766, YMB): 100 µg/mL (≈ 108 µM)
- MIC (C. glabrata MTCC 3019; Nakaseomyces glabratus, MTCC3019, YMB): 25 µg/mL (≈ 27.1 µM)
- MIC (C. tropicalis MTCC 184; Candida tropicalis, MTCC184, YMB): 35 µg/mL (≈ 37.9 µM)
- MIC ([1]; Alternaria brassicicola, MTCC2102, PDB): 50 µg/mL (≈ 54.1 µM)
- MIC (C. inconspicua MTCC 1074): 10 µg/mL (≈ 10.8 µM)
- MIC (C. albicans 400054; Candida albicans): 5 µg/mL (≈ 5.41 µM)
- MIC (C. tropicalis 420024; Candida tropicalis): 50 µg/mL (≈ 54.1 µM)
- MIC (C. auris 470126; Candidozyma auris): 5 µg/mL (≈ 5.41 µM)
- MIC (C. haemulonii 470125; Candidozyma haemuli): 50 µg/mL (≈ 54.1 µM)
- MIC (C. kefyr 410004; Kluyveromyces marxianus): 50 µg/mL (≈ 54.1 µM)
- MIC value (C. acutatum MTCC1037): R
- MIC (C. albicans MTCC 1637; Candida albicans, MTCC1637, YMB): 5 µg/mL (≈ 5.41 µM)
- MIC (C. albicans MTCC 227; Candida albicans, MTCC227, YMB): 5 µg/mL (≈ 5.41 µM)
- MIC (C. albicans MTCC 183): 5 µg/mL (≈ 5.41 µM)
- MIC (F. moniliforme MTCC 158): 50 µg/mL (≈ 54.1 µM)
- MIC (C. rugosa 470141): 5 µg/mL (≈ 5.41 µM)
- MIC (C. krusei 440009): 5 µg/mL (≈ 5.41 µM)
- MIC (C. parapsilosis 450030): 50 µg/mL (≈ 54.1 µM)

Structure (SMILES): OC(Cn1cncn1)(Cn1cncn1)c1ccc(F)cc1F [Fluconazole]
- MIC value (C. haemulonii MTCC 2766; YMB): R
- MIC value (C. glabrata MTCC 3019; YMB): R
- MIC value (C. tropicalis MTCC 184; YMB): R
- MIC value ([1]; PDB): R
- MIC (C. inconspicua MTCC 1074): 50 µg/mL (≈ 163 µM)
- MIC value (C. albicans 400054): R
- MIC value (C. tropicalis 420024): R
- MIC value (C. auris 470126): R
- MIC value (C. haemulonii 470125): R
- MIC value (C. kefyr 410004): R
- MIC value (C. acutatum MTCC1037): R
- MIC value (C. albicans MTCC 1637; YMB): R
- MIC value (C. albicans MTCC 227; YMB): R
- MIC (F. moniliforme MTCC 158): 10 µg/mL (≈ 32.7 µM)
- MIC (C. rugosa 470141): 5 µg/mL (≈ 16.3 µM)
- MIC (C. krusei 440009): 1 µg/mL (≈ 3.27 µM)
- MIC (C. parapsilosis 450030): 10 µg/mL (≈ 32.7 µM)

Structure (SMILES): [Cl][Hg][Cl] [mercuric chloride]
- Seed germination [2]: No germination
